The source of these data is patent US11458138B2 (Novartis AG, priority 2017, dated 2022).

One test has as its target LATS1 (Homo sapiens (Human), UniProt O95835). Kind of test: LATS1 biochemical assay (Table 1A, Compound Examples 1-290; method in the earlier part).
In test [1] the target is Human LATS2 kinase domain protein (Homo sapiens (Human), UniProt Q9NRM7). Kind of test: LATS2 Biochemical Caliper Assay (Compound Examples 1-290). The following applies: 400 micromolar ATP. On the procedure:
Human LATS2 kinase domain protein was purchased from Carnabio (catalogue number 01-124), which harbors the catalytic domain of amino acids 553-1088, and was co-purified with human His-tagged MOBKL1A (NP_775-739). 5 microlitre of enzyme buffer, 100 nL of compounds and 5 microlitre of localising aid buffer were added into 384-well plates. […] The plates were incubated at 25° C. for 3 hours. 40 microlitre of stop buffer with 25 mM EDTA (NanoSyn) was added to each well to terminate the reaction. Localising aids and products were separated electrophoretically using the microfluidic-based Caliper Labchip 3000 Drug Discovery System (Caliper Life Sciences). Plates were read using blue laser excitation and green fluorescence detection and quantified by fluorescence intensity.

Test [2] deals with Phospho-YAP (SER127) in HaCaT cells. Description: pYAP HTRF Assay (HaCaT Cells). The test is classed as cell-based, human. The following applies: Homo sapiens, 2 hours. The method, boiled down:
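HaCaT cells at 5500 cells/well were cultured 48 hours at 37° C, then treated with compound for 2 hours. Phospho-YAP (Ser127) was detected by HTRF after an overnight (20 hrs) room-temperature incubation, read as the 665 nm/620 nm ratio.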

For test [3], the system named is YAP nuclear translocation in HaCaT cells. Description: YAP Translocation Assay (HaCaT Cells). The test is classed as cell-based, human. The following applies: Homo sapiens, 24 hours. In outline:
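HaCaT cells (20,000/well) in DMEM + 10% FBS were plated overnight at 37° C, then exposed to compound for 24 h at 37° C. Cells were fixed with PFA, permeabilized with 0.1% Triton/1.5% BSA and imaged by high-content imaging.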

The subject of test [4] is Phospho-YAP (Ser127) in JHH-5 cells. Kind of test: pYAP HTRF Assay (JHH-5 cells). The format is cell-based. The following applies: 2 hours. The method, boiled down:
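JHH-5 cells (24000/well) cultured 24 h at 37 °C in William's E with 10% FBS, then exposed to compounds for 2 h at 37 °C. After lysis, pYAP d2/cryptate antibodies incubated 18 h at room temperature; HTRF ratio 665/620 nm ×10000.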

Test [5] concerns human limbal stem cells (LSCs). Description: Human limbal stem cell population expansion: expansion factor. The format is cell-based. Particulars: 10 micromolar, XVIVO15 medium, two passages, ratio of expanded to seeded cells. On the procedure: (§1) Cells were cultured at 37° C. in 5% CO2.
(§2) For each compound, two sets of cultures were generated. A first set of cultures was fixed in 4% PFA for 20 minutes at room temperature after cells isolated from the cornea had attached to the cell culture dish (typically 24 h after cell plating). A second set of cultures was fixed in 4% PFA for 20 minutes at room temperature after being cultured for two passages. Cells were passaged when they reached 90-100% confluence.
To evaluate cell expansion ratios, nuclei were counted using a Zeiss LSM 880 confocal microscope. The expansion factor was then determined by calculating the ratio of the expanded population of cells to population of seeded cells.

The test system of test [6] is human limbal stem cells (LSCs). Kind of test: Human limbal stem cell population expansion: percentage of p63alpha-positive cells. The following applies: 10 micromolar, XVIVO15 medium. The format is cell-based. On the procedure: as §1, §2
In order to observe that the expanded cell population expressed p63alpha, this was measured by immunohistochemistry as follows. The fixed cell cultures were permeabilized and blocked in a blocking solution of 0.3% Triton X-100 (Sigma-Aldrich) and 3% donkey serum in PBS for 30 minutes. Cells were then labeled with primary antibody in the blocking solution for 12 hours at 4° C. Primary antibody used was p63alpha from Cell Signalling. Samples were washed in PBS three times and donkey-raised secondary antibody Alexa Fluor 488 (Molecular Probes) at 1:500 dilution were applied for 30 minutes at room temperature. Cell nuclei were then labeled in a solution of 0.5 micromolar of Sytox Orange (ThermoFisher) in PBS for 5 minutes at room temperature.
To evaluate the percentage of p63alpha-positive cells, the number of cells labeled by the anti-p63alpha antibody was counted and the total number of cells was determined by counting the number of nuclei stained by Sytox Orange. The proportion of p63alpha-positive cells was then determined by calculating the percentage of Sytox-orange-positive nuclei that also expressed p63alpha.

Test [7] deals with human corneal endothelial cells (CECs). Description: Human corneal endothelial cell population expansion: fold cell expansion. The test is classed as cell-based. Particulars: 10 micromolar compound, X-VIVO15 medium, 10 days, ratio of expanded to seeded cells. The procedure: as §1
(§3) For each compound, two sets of cultures were generated. A first set of cultures was fixed in 4% PFA for 20 minutes at room temperature after cells isolated from the cornea had attached to the cell culture dish (typically 24 h after cell plating). A second set of cultures was fixed in 4% PFA for 20 minutes at room temperature 10 days after the first one.
(§4) To measure cell density in all fixed cultures, the number of nuclei stained with Sytox Orange (ThermoFisher) were counted per surface area as follows: fixed cell cultures fixed were permeabilized in a solution of 0.3% Triton X-100 (Sigma-Aldrich). Cells were then labeled in a solution of 0.5 micromolar of Sytox Orange in PBS for 5 minutes at room temperature. Nuclei were counted under a Zeiss epifluorescence microscope. The expansion factor was then determined by calculating the ratio of the expanded population of cells to population of seeded cells.

The test system is the same in test [8]. Kind of test: Human corneal endothelial cell population expansion: endothelial cell density in vitro. The test is classed as cell-based. Particulars: 10 micromolar compound, X-VIVO15 medium, 10 days. The procedure: as §1, §3, §4
Test [9] deals with hepatic progenitor cells (HPC). Description: Mouse Hepatic Progenitor Cell Proliferation Assay. The test is classed as cell-based. The following applies: 96 h, mean number of nuclei per organoid, 4 days. The procedure: The progenitor cells were isolated from C57Bl/6 wild type mice and expanded as described (Lu, W. Y. et al., Nat. Cell Biol. 17, 971-983 (2015)). Cells are stocked in liquid nitrogen, thawed on need and tested using the following protocol: HPC are harvested from their collagen I coated culture vessel (Corning; cat. Number 354487), counted and assessed for viability using a CEDEX cell counter (Roche). After centrifugation, 12 million cells are re-suspended in 2 ml of William's E Medium (Life Technologies; cat. Number 22551089) supplemented with 10% Fetal Bovine Serum (Amimed; cat. Number 2-01F10-I); 1% Penicillin/Streptomycin (Sigma; cat. Number 15140-122); 17.6 mM of NaHCO3 (Sigma; cat. Number S8761); 20 mM HEPES (Gibco; cat. Number H3375); 10 mM Nicotinamide (Sigma; cat. Number N0636-100); 14 mM glucose (Sigma; cat. Number G7021); 1 mM Sodium Pyruvate (Sigma; cat. Number TMS-005); Insulin Transferrin Selenium (ITS) diluted 100 times from stock solution (Sigma; cat. Number 13148); 100 nM Dexamethasone (Sigma; cat. Number D4902); 0.2 mM ascorbic acid (Sigma; cat. Number A7506-100G); 10 ng/ml recombinant human IL-6 (Preprotech; cat. Number 200-06); 10 ng/ml murine HGF (Preprotech; cat. Number 315-23; Lot. 0711S527); 10 ng/ml murine EGF (Preprotech; cat. Number 315-09; Lot. 0217179-1). Six milliliters of Matrigel (Corning; cat. Number 354277; Lot: 5187006) are added to the cell/media solution, thus the final cell concentration is 1.5 million HPC per milliliter, in 25% culture medium and 75% Matrigel. Five microliter (p1) of the cell/Matrigel suspension are transferred in each well of the clear bottom 96 well assay plate (Corning; cat. Number 356649) using the Star dispenser (Hamilton). […]
Plates are imaged with the CV7000 imager (Yokogawa) at a 10 fold magnification using the bright field lamp (lamp power: 10%; exposure time: 20 ms) and the 405 nanometer laser (laser power: 100%; exposure time 200 ms). Four different images per well were acquired and analyzed with the Yokogawa image analysis software (YAS). […]

Human LATS2 kinase domain protein, sequence (Q9NRM7 553-1088): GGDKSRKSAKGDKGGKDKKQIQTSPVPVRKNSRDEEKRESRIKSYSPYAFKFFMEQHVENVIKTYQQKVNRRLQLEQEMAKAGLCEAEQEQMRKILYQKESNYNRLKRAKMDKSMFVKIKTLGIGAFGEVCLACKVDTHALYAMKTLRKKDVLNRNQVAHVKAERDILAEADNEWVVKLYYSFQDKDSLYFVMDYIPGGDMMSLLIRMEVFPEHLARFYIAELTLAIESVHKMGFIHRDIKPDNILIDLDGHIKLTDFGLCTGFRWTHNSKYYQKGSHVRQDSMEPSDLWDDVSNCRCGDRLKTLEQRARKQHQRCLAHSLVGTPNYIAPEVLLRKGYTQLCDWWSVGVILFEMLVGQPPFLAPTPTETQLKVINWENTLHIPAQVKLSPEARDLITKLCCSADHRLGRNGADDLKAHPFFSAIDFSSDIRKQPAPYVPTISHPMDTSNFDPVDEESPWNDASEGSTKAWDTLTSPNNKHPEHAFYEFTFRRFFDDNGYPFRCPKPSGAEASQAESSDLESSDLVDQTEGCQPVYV
Human LATS2 kinase domain protein, sequence (Q7L9L4 whole entry partner, the tested form may be a part): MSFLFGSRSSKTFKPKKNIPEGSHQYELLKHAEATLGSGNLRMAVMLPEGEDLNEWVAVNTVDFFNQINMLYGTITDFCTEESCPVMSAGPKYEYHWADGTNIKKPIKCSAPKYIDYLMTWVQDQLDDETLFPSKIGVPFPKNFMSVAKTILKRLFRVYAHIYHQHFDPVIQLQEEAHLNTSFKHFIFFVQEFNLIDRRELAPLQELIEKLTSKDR
LATS1, sequence (O95835 whole entry, looked up, the tested form may be a part): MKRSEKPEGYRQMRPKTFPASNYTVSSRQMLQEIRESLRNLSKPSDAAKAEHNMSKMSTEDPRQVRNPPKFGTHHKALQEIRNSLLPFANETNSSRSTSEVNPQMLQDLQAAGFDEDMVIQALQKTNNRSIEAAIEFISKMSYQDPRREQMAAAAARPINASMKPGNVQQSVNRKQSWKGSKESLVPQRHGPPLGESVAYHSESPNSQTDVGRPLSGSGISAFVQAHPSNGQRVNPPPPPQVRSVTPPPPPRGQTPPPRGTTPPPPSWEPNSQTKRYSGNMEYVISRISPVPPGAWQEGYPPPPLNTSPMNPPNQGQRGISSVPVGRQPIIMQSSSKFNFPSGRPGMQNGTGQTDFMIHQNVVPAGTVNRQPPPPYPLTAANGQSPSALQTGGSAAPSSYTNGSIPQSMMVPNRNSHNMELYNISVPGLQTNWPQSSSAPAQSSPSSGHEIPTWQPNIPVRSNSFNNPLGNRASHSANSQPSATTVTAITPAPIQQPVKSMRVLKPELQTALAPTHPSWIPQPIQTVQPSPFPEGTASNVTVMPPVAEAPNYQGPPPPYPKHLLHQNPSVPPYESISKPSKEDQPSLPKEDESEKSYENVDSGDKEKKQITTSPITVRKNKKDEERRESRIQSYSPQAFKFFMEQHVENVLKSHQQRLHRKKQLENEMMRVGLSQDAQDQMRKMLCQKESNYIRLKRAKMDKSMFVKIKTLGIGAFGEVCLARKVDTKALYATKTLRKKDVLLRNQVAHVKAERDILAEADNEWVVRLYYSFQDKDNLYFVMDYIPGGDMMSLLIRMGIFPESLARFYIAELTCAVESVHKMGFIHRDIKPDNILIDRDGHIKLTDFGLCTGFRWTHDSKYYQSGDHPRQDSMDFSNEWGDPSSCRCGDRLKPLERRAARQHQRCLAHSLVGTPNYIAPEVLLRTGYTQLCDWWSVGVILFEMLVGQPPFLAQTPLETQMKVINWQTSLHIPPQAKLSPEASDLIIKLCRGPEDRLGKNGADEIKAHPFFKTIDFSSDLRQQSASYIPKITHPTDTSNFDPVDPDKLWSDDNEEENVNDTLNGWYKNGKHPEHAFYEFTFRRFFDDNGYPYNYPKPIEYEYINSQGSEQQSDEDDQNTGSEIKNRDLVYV
LATS1, sequence (Q7L9L4 whole entry partner, looked up, the tested form may be a part): as the sequence (Q7L9L4 whole entry partner, the tested form may be a part) above

What is called IC50 is the concentration needed to halve the response being measured. Read a high IC50 as a need for much substance. One may read the EC50 as the concentration giving half of the maximal effect. Consider `CC(C)Nc1nc(-c2ccncc2)nc2cnccc12` [Example 6, N-(propan-2-yl)-2-(pyridin-4-yl)pyrido[3,4-d]pyrimidin-4-amine], for which the concentration for half-maximal inhibition (IC50) on LATS1 was found to be 1 nM; in test [1] it was 8 nM; in [2], 1240 nM; in [4] it was 2600 nM. The EC50 in [3] worked out at 1700 nM. Further, the Expansion factor in test [5] was determined as 1275. Further, the “Percentage of p63a-positive cells” value in [6] came to 93%. The “Expansion factor (Fold Cell expansion)” value in test [7] was found to be 391. In addition, the “Endothelial Cell density in vitro” value in test [8] was found to be 3378 cells/mm^2.

`C[C@H](N(C)c1nc(-c2ccncc2)nc2cnccc12)C(F)(F)F` [Example 48a, N-methyl-2-(pyridin-4-yl)-N-[(2S)-1,1,1-trifluoropropan-2-yl]pyrido[3,4-d]pyrimidin-4-amine] gave an EC50 in test [9] of 260 nM.

Take `FC(F)(F)C1(Nc2nc(-c3ccncc3)nc3cnccc23)CCC1` [Example 62, 2-(pyridin-4-yl)-N-[1-(trifluoromethyl)cyclobutyl]pyrido[3,4-d]pyrimidin-4-amine]: the IC50 against LATS1 was determined as 1 nM; in [1] it was 2 nM; in [2], 40 nM; in [4], 600 nM. The same compound yielded an EC50 in [3] of 538 nM. Also, in test [5], the Expansion factor is given as 1712. In test [6], the “Percentage of p63a-positive cells” value was 95%. Also, the “Expansion factor (Fold Cell expansion)” value in [7] is 402. In test [8], the “Endothelial Cell density in vitro” value was determined as 3301 cells/mm^2.

On to `CC(C)(CO)Nc1nc(-c2ccncc2)nc2cnccc12` [Example 66, 2-methyl-2-{[2-(pyridin-4-yl)pyrido[3,4-d]pyrimidin-4-yl]amino}propan-1-ol], for which the IC50 against LATS1 stood at 2 nM; in test [1] it was 11 nM; in test [2], 534 nM; in [4], 6200 nM. The same compound displayed an EC50 in test [3] of 1010 nM. The Expansion factor in test [5] is 1160. Besides, the “Percentage of p63a-positive cells” value in [6] came out at 89%. For the same compound, the “Expansion factor (Fold Cell expansion)” value in test [7] was 280. For the same compound, the “Endothelial Cell density in vitro” value in test [8] is on record as 2503 cells/mm^2.

`CC(C)(Nc1nc(-c2ccncc2Cl)nc2cnccc12)C(F)(F)F` [Example 139, 2-(3-chloropyridin-4-yl)-N-(1,1,1-trifluoro-2-methylpropan-2-yl)pyrido[3,4-d]pyrimidin-4-amine]: the 50% inhibitory concentration (IC50) against LATS1 worked out at 3 nM; in test [1] it was 20 nM; in [2], 380 nM; in test [4] it was 1700 nM. For the same compound, it took 2660 nM to reach a half-maximal effect in test [3] (EC50). Moreover, the Expansion factor in test [5] turned out to be 961. The “Percentage of p63a-positive cells” value in test [6] is given as 87%. Besides, the “Expansion factor (Fold Cell expansion)” value in test [7] stood at 107. In [8], the “Endothelial Cell density in vitro” value stood at 1179 cells/mm^2.

As for `CCCNc1nc(-c2c[nH]nc2C(F)(F)F)nc2cnccc12` [Example 287, N-propyl-2-(3-(trifluoromethyl)-1H-pyrazol-4-yl)pyrido[3,4-d]pyrimidin-4-amine], the IC50 against LATS1 came out at 2 nM; in [1] it was 15 nM; in test [2], 2990 nM; in [4], 9000 nM. In test [3], this compound gave an EC50 of 3880 nM. Moreover, the Expansion factor in test [5] stood at 991. Further, in test [6], the “Percentage of p63a-positive cells” value was found to be 86%. The “Expansion factor (Fold Cell expansion)” value in [7] is reported as 237. Further, the “Endothelial Cell density in vitro” value in [8] came out at 1893 cells/mm^2.

On to `FC(F)(F)C1CN(c2nc(-c3ccncc3)nc3cnccc23)CCN1` (stereo not drawn) [Example 290, 2-(pyridin-4-yl)-4-(3-(trifluoromethyl)piperazin-1-yl)pyrido[3,4-d]pyrimidine], for which the IC50 against LATS1 was 4 nM; in [1], 8 nM; in [4] it was 3000 nM. The same compound yielded an EC50 in [3] of 1390 nM. In addition, in test [5], the Expansion factor is listed as 1051. Further, the “Percentage of p63a-positive cells” value in [6] was 90%. Also, in test [7], the “Expansion factor (Fold Cell expansion)” value was 221. Further, in [8], the “Endothelial Cell density in vitro” value is recorded as 2071 cells/mm^2.
